Laboratory results published in patent publication US7671038B1, “Method of therapeautic treatments including human immunodeficiency virus (HIV) disease and other conditions in a human host by administering adenine nucleotides” (priority 1993, dated 2010).
Entries after “also recorded” stand apart in the source; their conditions may differ.

How the values were obtained:
[1] = cited from earlier work
[2] = Phase I continuous intravenous ATP infusions in advanced cancer patients: total blood (red blood cell) ATP levels and adverse effects; type: in vivo, human; details: after 48 hours of infusion
From the text: In advanced cancer patients with cachexia and malnutrition, the basal blood ATP levels were lower than normal but could be elevated to well above a normal level after ATP infusions.

[3] = test system: tumor-bearing murine models; details: cited from earlier work
T-cells = details: HIV seropositive individuals (without AIDS); cited from earlier work
TNF-α production = details: cited from earlier work; for TNF-α biosynthesis inhibition: conclusion of Parmely et al.
endotoxin lethality = details: mice; cited from earlier work
[4] = activated mouse peritoneal macrophages

Nc1ncnc2c1ncn2[C@@H]1O[C@H](COP(=O)(O)OP(=O)(O)OP(=O)(O)O)[C@@H](O)[C@H]1O [ATP, adenosine 5′triphosphate]
change of blood (red blood cell) ATP levels ([1]; intravenous infusion 50 μg/kg min, after 24 hours, advanced cancer patients): doubling | decline of elevated blood ATP levels after termination of the ATP infusions ([1]; return of total blood ATP to basal levels): declined over a period of several days; also recorded: declined within several days | change of total blood levels of ATP (red blood cell ATP pools) ([2]; most patients): doubling | total blood ATP levels ([2]; basal levels 0.9-1 mM): 1.6 to 2 mM | host weight loss ([3]; cachectic tumor model, murine hosts): markedly inhibit | tumor growth ([3]; elevated ATP levels, tumor-bearing murine models): inhibit

C[C@H]1O[C@@H](n2cnc3c(N)ncnc32)C[C@@H]1O [ddAdo, 2′,5′-dideoxyadenosine]
cyclic AMP levels (T-cells): reduce | proliferative capacity of T-cells to recall antigens and T-cell cytotoxicity (T-cells): increase

Nc1ncnc2c1ncn2[C@H]1CC[C@@H](O)C1 [MDL201112, reference compound]
TNF-α biosynthesis inhibition (TNF-α production): potent inhibitors

Nc1ncnc2c1ncn2[C@@H]1O[C@H](CO)[C@@H](O)[C@H]1O [adenosine]
protection against endotoxin lethality (endotoxin lethality): failed to protect | RNA levels for TNF-α (TNF-α production; [4]): no effect | TNF-α production (TNF-α production; [4]): inhibited | TNF-α biosynthesis inhibition (TNF-α production): potent inhibitors
